Experimental data from US7317014B2, “Bio-active pyrimidine molecules” (Orchid Research Laboratories, Ltd., priority 2002, dated 2008).

Columns and labels:
IL-6 = IL-6 production from LPS-stimulated human monocytes (ELISA); assay type: cell-based; conditions: Monocyte; for inhibition at 1 µM: Conc. 1 μM; for inhibition at 10 µM: Conc. 10 μM
Protocol: Interleukin-6(IL-6) This assay determines the effect of test compounds on the production of IL-6 from human monocytes. Compounds are tested for their ability to downregulate the production of IL-6 in activated monocytes. Test compounds were incubated for three, six and twenty four hours with human monocytes. Lipopolysaccharide was used to stimulate the monocytes. The level of Interleukin-6 is quantitated using Enzyme-Linked Immunosorbent assay performed in a 96 well format.

TNF-α = TNF-α production from LPS-stimulated human monocytes (ELISA); assay type: cell-based; conditions: Monocyte
NCI-H460 = assay: DTP human tumor cell line one-dose prescreen, NCI-H460; assay type: cell-based; conditions: Concentration (100 μm), Lung NCI-H460, test/control (T/C)
Protocol: (§1) The current assay utilizes a 384 well plate format and fluorescent staining technologies resulting in greater screening capacity for testing of synthetic samples. Cell Lines The cell lines of the cancer screening panel are grown in RPMI 1640 medium containing 5% fetal bovine serum and 2 mM L-glutamine. For a typical screening experiment, cells are inoculated into 96 well microtiter plates in 100 μL. After cell inoculation, the microtiter plates are incubated at 37° C., 5% CO2, 95% air and 100% relative humidity for 24 h prior to addition of experimental drugs. The cells are plated a densities of 5000 cells/well (MCF7), 1000 cells/well (NCI-H460), and 7500 cells/well (SF-268) to allow for varying doubling time of the cell lines. Each plate contains all three cell lines, a series of dilutions of standard agents, total kill wells and appropriate controls. Plates are incubated under standard conditions for 24 hours prior to addition of experimental compounds or extracts. Addition of Experimental Agents (Pure Compounds) […] Two standard drugs, meaning that their activities against the cell lines are well documented, are tested against each cell line: NSC 19893 (5-FU) and NSC 123127 (Adriamycin). Endpoint Measurement After compound addition, plates are incubated at standard conditions for ?hours, 10 μl/well Alamar Blue is added and the plates are incubated for an additional 4 hours. Fluorescence is measured using an excitation wavelength of 530 nm and an emission wavelength of 590 nm. Calculation of Percent Test Cell Growth/Control (Untreated) Cell Growth (T/C) Calculation of Percent Test Cell Growth/Control (Untreated) Cell Growth (T/C) Percent growth is calculated on a plate-by-plate basis for test wells relative to control wells. Percent Growth is expressed as the ratio of fluorescence of the test well to the average fluorescence of the control wells ×100.

MCF7 = assay: DTP human tumor cell line one-dose prescreen, MCF7; assay type: cell-based; conditions: Concentration (100 μm), Breast MCF7, test/control (T/C)
Protocol: as §1

SF-268 = assay: DTP human tumor cell line one-dose prescreen, SF-268; assay type: cell-based; conditions: Concentration (100 μm), CNS SF-268, test/control (T/C)
Protocol: as §1

Male Wistar rats = assay: Rat carrageenan paw edema test; assay type: in vivo; conditions: oral
COX-2 = biological target: T1, COX-2 (Homo sapiens, UniProt P35354); assay: Human whole blood assay, COX-2 inhibition (PGE2 after LPS); assay type: cell-based; conditions: Conc. 0.1 μM, 24 h
T1 construct: incubation of human blood with lipopolysaccharide (LPS), which induces COX-2 production in the blood; endogenous in cells; host or cells: fresh human whole blood from male volunteers, LPS-stimulated, aspirin-pretreated
T1 sequence (P35354 18-604): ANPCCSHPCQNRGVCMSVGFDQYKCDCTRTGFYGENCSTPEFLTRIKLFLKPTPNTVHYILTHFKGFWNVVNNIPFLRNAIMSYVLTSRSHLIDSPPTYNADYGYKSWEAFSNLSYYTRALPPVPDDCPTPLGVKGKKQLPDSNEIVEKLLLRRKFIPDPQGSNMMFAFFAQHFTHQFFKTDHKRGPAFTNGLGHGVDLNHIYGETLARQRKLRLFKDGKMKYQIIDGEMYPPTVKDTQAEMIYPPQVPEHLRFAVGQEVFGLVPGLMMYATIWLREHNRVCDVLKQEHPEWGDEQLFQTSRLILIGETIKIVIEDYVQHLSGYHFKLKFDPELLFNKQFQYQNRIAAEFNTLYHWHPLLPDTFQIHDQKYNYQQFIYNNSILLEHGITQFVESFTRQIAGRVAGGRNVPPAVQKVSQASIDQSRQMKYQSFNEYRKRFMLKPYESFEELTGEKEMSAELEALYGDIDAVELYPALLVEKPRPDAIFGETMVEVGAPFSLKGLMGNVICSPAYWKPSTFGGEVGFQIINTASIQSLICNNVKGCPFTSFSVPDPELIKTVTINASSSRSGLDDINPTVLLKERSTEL
Protocol: The COX-2 inhibition activity of the compounds illustrated in the examples was determined by the following method. Human Whole Blood Assay Human whole blood provides a protein and cell rich milieu appropriate for the study of biochemical efficacy of anti-inflammatory compounds such as selective COX-2 inhibitors. […] This is correlating with the observation that COX-2 inhibitors have no effect on prostaglandin E2 (PGE2) production in normal blood. These inhibitors are active only after incubation of human blood with lipopolysaccharide (LPS), which induces COX-2 production in the blood. Method Fresh blood was collected in tubes containing potassium EDTA by vein puncture from male volunteers. The subjects should have no apparent inflammatory conditions and not taken NSAIDs for atleast 7 days prior to blood collection. Blood was treated with aspirin in vitro (10 μg/ml, at time zero) to inactivate COX-1, and then with LPS (10 μg/ml) along with test agents or vehicle. The blood was incubated for 24 h at 37° C., after which the tubes were centrifuged, the plasma was separated and stored at −80° C. (J. Pharmacol. Exp. Ther., 271, 1705, 1994; Proc. Natl. Acad. Sci. USA., 96, 7563, 1999). The plasma was assayed for PGE2 using Cayman ELISA kit as per the procedure outlined by the manufacturer (Cayman Chemicals, Ann Arbor, USA). The plasma was also tested for TNF-α, IL-1β, and IL-6 using appropriate human ELISA kit as per the procedure of manufacturer (Cayman Chemicals, Ann Arbor, USA).

Row | SMILES | melting point | also measured
1 | [N-]=[N+]=Nc1nc(C(F)(F)F)nc(-c2ccccc2)c1-c1ccccc1 | 126 to 128 °C | 
2 | CS(=O)(=O)c1ccc(-c2nc(C(F)(F)F)nc(N=[N+]=[N-])c2-c2ccccc2)cc1 | 172 to 175 °C | 
3 | CS(=O)(=O)c1ccc(-c2nc(C(F)(F)F)nc(N=[N+]=[N-])c2-c2ccc(Cl)cc2)cc1 | 317 to 320 °C | 
4 | CS(=O)(=O)c1ccc(-c2nc(C(F)(F)F)nc(N=[N+]=[N-])c2-c2ccc(F)cc2)cc1 | 285 to 288 °C | 
5 | NNc1nc(C(F)(F)F)nc(-c2ccc(F)cc2)c1-c1ccccc1 | 175 to 177 °C | 
6 | CS(=O)(=O)c1ccc(-c2nc(C(F)(F)F)nc(NN)c2-c2ccc(Cl)cc2)cc1 | 266 to 269 °C | 
7 | CS(=O)(=O)c1ccc(-c2nc(C(F)(F)F)nc(NN)c2-c2ccc(F)cc2)cc1 | 286 to 290 °C | 
8 | CC(=O)NNc1nc(C(F)(F)F)nc(-c2ccccc2)c1-c1ccccc1 | 113 to 116 °C | 
9 | CC(=O)NNc1nc(C(F)(F)F)nc(-c2ccc(F)cc2)c1-c1ccccc1 | 149 to 153 °C | 
10 | CC(=O)NNc1nc(C(F)(F)F)nc(-c2ccc(S(C)(=O)=O)cc2)c1-c1ccccc1 | 265 to 268 °C | 
11 | CC(=O)NNc1nc(C(F)(F)F)nc(-c2ccc(S(C)(=O)=O)cc2)c1-c1ccc(Cl)cc1 | 254 to 256 °C | 
12 | CS(=O)(=O)c1ccc(-c2nc(C(F)(F)F)nc(NNC(=O)C(F)(F)F)c2-c2ccc(Cl)cc2)cc1 | 307 to 309 °C | 
13 | O=c1nc(Cl)cc(-c2ccccc2)n1-c1ccccc1 | 141 to 143 °C | 
14 | FC(F)(F)c1nc(Cl)c(-c2ccccc2)c(-c2ccccc2)n1 [Example 1, 4-chloro-5,6-diphenyl-2-(trifluoromethyl)pyrimidine] | 105 to 107 °C | inhibition at 1 µM (IL-6): 62.5%
15 | NNc1nc(C(F)(F)F)nc(-c2ccccc2)c1-c1ccccc1 [Example 21, 4-hydrazino-5,6-diphenyl-2-(trifluoromethyl)pyrimidine] | 182 to 186 °C | inhibition at 1 µM (IL-6): 67.5%
16 | Cc1ccc(-c2nc(C(F)(F)F)nc(NN)c2-c2ccccc2)cc1 [Example 22, 4-hydrazino-6-(4-methylphenyl)-5-phenyl-2-(trifluoromethyl)pyrimidine] | 188 to 191 °C | inhibition at 1 µM (IL-6): 52.3%
17 | CS(=O)(=O)c1ccc(-c2nc(C(F)(F)F)nc(NN)c2-c2ccccc2)cc1 [Example 24, 4-hydrazino-6-[4-(methylsulfonyl)phenyl]-5-phenyl-2-(trifluoromethyl)pyrimidine] | 272 to 275 °C | inhibition at 10 µM (IL-6): 66%
18 | CC(=O)NNc1nc(C(F)(F)F)nc(-c2ccc(C)cc2)c1-c1ccccc1 [Example 32, N′-[6-(4-methylphenyl)-5-phenyl-2-(trifluoromethyl)pyrimidin-4-yl]acetohydrazide] | 147 to 152 °C | inhibition at 10 µM (IL-6): 53.3%

The next lines start with results.

Row | melting point | SMILES | also measured
19 | 223 to 225 °C | Cc1ccc(-c2nc(Cl)nc(Cl)c2-c2ccc(Cl)cc2)cc1 | 
20 | 272 to 274 °C | CSc1ccc(-c2c(NN)nc(Cl)nc2-c2ccccc2)cc1 | 
21 | 67 to 68 °C | Fc1ccc(-c2nc(C(F)(F)F)nc(Cl)c2-c2ccccc2)cc1 | 
22 | 207 to 210 °C | CSc1ccc(-c2c(NN)nc(NN)nc2-c2ccccc2)cc1 | 
23 | 97 to 100 °C | Cc1ccc(-c2nc(C(F)(F)F)nc(Cl)c2-c2ccccc2)cc1 [Example 2, 4-chloro-6-(4-methylphenyl)-5-phenyl-2-(trifluoromethyl)pyrimidine] | inhibition at 1 µM (IL-6): 62.3%
24 | 156 to 159 °C | CS(=O)(=O)c1ccc(-c2nc(C(F)(F)F)nc(Cl)c2-c2ccccc2)cc1 [Example 4, 4-chloro-6-[4-(methylsulfonyl)phenyl]-5-phenyl-2-(trifluoromethyl)pyrimidine] | inhibition at 10 µM (TNF-α; Conc. 10 μM): 55.4%; Percentage Growth Lung NCI-H460 (NCI-H460): 0; Percentage Growth Breast MCF7 (MCF7): 0; Percentage Growth CNS SF-268 (SF-268): 3
25 | 144 to 146 °C | Clc1nc(Cl)c(-c2ccccc2)c(-c2ccccc2)n1 [Example 7, 2,4-dichloro-5,6-diphenylpyrimidine] | Rat Paw Edema model % Inhibition (10 mg/kg body weight) (Male Wistar rats): 60.9%
26 | 130 to 132 °C | Cc1ccc(-c2nc(Cl)nc(Cl)c2-c2ccccc2)cc1 [Example 8, 2,4-dichloro-6-(4-methylphenyl)-5-phenylpyrimidine] | Percentage Growth Lung NCI-H460 (NCI-H460): 1; Percentage Growth Breast MCF7 (MCF7): 5; Percentage Growth CNS SF-268 (SF-268): 6
27 | 129 to 131 °C | Clc1ccc(-c2nc(Cl)nc(Cl)c2-c2ccccc2)cc1 [Example 9, 6-(4-chlorophenyl)-2,4-dichloro-5-phenylpyrimidine] | Rat Paw Edema model % Inhibition (10 mg/kg body weight) (Male Wistar rats): 42.8%; inhibition at 0.1 µM (COX-2): 60.5%; Percentage Growth Lung NCI-H460 (NCI-H460): 0; Percentage Growth Breast MCF7 (MCF7): 1; Percentage Growth CNS SF-268 (SF-268): 1
28 | 123 to 125 °C | Clc1ccc(-c2c(Cl)nc(Cl)nc2-c2ccccc2)cc1 [Example 10, 5-(4-chlorophenyl)-2,4-dichloro-6-phenylpyrimidine] | Percentage Growth Lung NCI-H460 (NCI-H460): 0; Percentage Growth Breast MCF7 (MCF7): 0; Percentage Growth CNS SF-268 (SF-268): 0
29 | 132 to 134 °C | COc1ccc(-c2c(Cl)nc(Cl)nc2-c2ccccc2)cc1 [Example 11, 2,4-dichloro-5-(4-methoxyphenyl)-6-phenylpyrimidine] | inhibition at 1 µM (TNF-α; Conc. 1 μM): 29.2%; Percentage Growth Lung NCI-H460 (NCI-H460): 0; Percentage Growth Breast MCF7 (MCF7): 5; Percentage Growth CNS SF-268 (SF-268): 2
30 | 88 to 90 °C | CSc1ccc(-c2c(Cl)nc(Cl)nc2-c2ccccc2)cc1 [Example 12, 2,4-dichloro-5-[4-(methylthio)phenyl]-6-phenylpyrimidine] | Percentage Growth Lung NCI-H460 (NCI-H460): 0; Percentage Growth Breast MCF7 (MCF7): −1; Percentage Growth CNS SF-268 (SF-268): 4
31 | 144 to 146 °C | CSc1ccc(-c2c(Cl)nc(Cl)nc2-c2ccc(Cl)cc2)cc1 [Example 13, 2,4-dichloro-6-(4-chlorophenyl)-5-[4-(methylthio)phenyl]pyrimidine] | Rat Paw Edema model % Inhibition (10 mg/kg body weight) (Male Wistar rats): 47.8%; inhibition at 0.1 µM (COX-2): 45.7%
